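Protocol summary: plate cells (96-well), add compound at 5 concentrations, incubate 48 h, interpolate endpoints linearly. GI50 marks 50% less growth.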 Active and inactive are the calls of the source. Cut-off read from the data, not from the text of the source: active = GI50 up to about 1.1 µM and inactive = higher.
How the values were obtained:
Experiment in all cases: inhibition of tumour cell growth, NCI panel, 48 h
BT-549 = system: BT-549
COLO 205 = system: COLO 205
EKVX = system: EKVX
HCT-15 = system: HCT-15
HL-60 = system: HL-60
HOP-92 = system: HOP-92
HT-29 = system: HT-29
IGROV-1 = system: IGROV-1
M14 = system: M14
MCF7 = system: MCF7
OVCAR-8 = system: OVCAR-8
RXF 393 = system: RXF 393
SF-268 = system: SF-268
SK-MEL-2 = system: SK-MEL-2
SN12C = system: SN12C
T47D = system: T47D
TK-10 = system: TK-10
UACC-62 = system: UACC-62
UO-31 = system: UO-31

Compound	GI50 (BT-549)	GI50 (COLO 205)	GI50 (EKVX)	GI50 (HCT-15)	GI50 (HL-60)	GI50 (HOP-92)	GI50 (HT-29)	GI50 (IGROV-1)	GI50 (M14)	GI50 (MCF7)	GI50 (OVCAR-8)	GI50 (RXF 393)	GI50 (SF-268)	GI50 (SK-MEL-2)	GI50 (SN12C)	GI50 (T47D)	GI50 (TK-10)	GI50 (UACC-62)	GI50 (UO-31)
O=C(O)c1ccc(NCc2nc3cc4ccccc4cc3[nH]2)cc1	> 100 µM (inactive)	> 100 µM (inactive)	> 100 µM (inactive)	26.7 µM	> 20.5 µM (inactive)	> 100 µM (inactive)	> 100 µM (inactive)	> 100 µM (inactive)	> 100 µM (inactive)	2.81 µM (inactive)	> 100 µM (inactive)	> 100 µM (inactive)	> 100 µM (inactive)	24.7 µM (inactive)	> 88.5 µM (inactive)	> 100 µM (inactive)	> 100 µM (inactive)	> 100 µM (inactive)	> 100 µM (inactive)
O=C(O)/C=C\C(=O)Nc1ccc2c(c1)C(=O)c1cc(F)ccc1-2	> 100 µM (inactive)	> 100 µM (inactive)	> 100 µM (inactive)	> 100 µM	> 100 µM (inactive)	> 100 µM (inactive)	> 100 µM (inactive)	> 100 µM (inactive)	> 100 µM (inactive)	> 100 µM (inactive)	> 100 µM (inactive)	> 100 µM (inactive)	> 100 µM (inactive)	> 100 µM (inactive)	> 100 µM (inactive)	> 100 µM (inactive)	> 100 µM (inactive)	> 100 µM (inactive)	> 100 µM (inactive)
CCOC(=O)c1c(C)[n+]([O-])c2cc(Cl)c(Cl)cc2[n+]1[O-]	19.8 µM (inactive)	19.7 µM (inactive)	24.1 µM (inactive)	14.3 µM	< 0.01 µM (active)	3.54 µM (inactive)	33.5 µM (inactive)	7.6 µM (inactive)	23.1 µM (inactive)	32.5 µM (inactive)	19.7 µM (inactive)	17.2 µM (inactive)	24.5 µM (inactive)	23.3 µM (inactive)	20.4 µM (inactive)	16 µM (inactive)	18.1 µM (inactive)	15.8 µM (inactive)	24.5 µM (inactive)
CN(C)Cc1cc(C(C)(C)C)ccc1-c1ccc(C(C)(C)C)cc1CN(C)C	> 100 µM (inactive)	64.3 µM (inactive)	62.2 µM (inactive)	> 100 µM	> 100 µM (inactive)	> 100 µM (inactive)	35 µM (inactive)	> 100 µM (inactive)	41.6 µM (inactive)	66.7 µM (inactive)	> 100 µM (inactive)	> 100 µM (inactive)	> 100 µM (inactive)	> 100 µM (inactive)	> 100 µM (inactive)	> 100 µM (inactive)	> 100 µM (inactive)	> 100 µM (inactive)	81.3 µM (inactive)
ClCCCSSCCCCl	21.5 µM (inactive)	32.1 µM (inactive)	74 µM (inactive)	22 µM	3.86 µM (inactive)	16.2 µM (inactive)	27.4 µM (inactive)	33 µM (inactive)	38.4 µM (inactive)	30.3 µM (inactive)	23.6 µM (inactive)	48.9 µM (inactive)	39.5 µM (inactive)	40.2 µM (inactive)	29.4 µM (inactive)	> 100 µM (inactive)	> 59.4 µM (inactive)	30.3 µM (inactive)	30.7 µM (inactive)
COC(=O)C(=O)c1cc2ccccc2n1S(=O)(=O)c1ccccc1	> 100 µM (inactive)	> 100 µM (inactive)	> 100 µM (inactive)	> 100 µM	> 100 µM (inactive)	> 100 µM (inactive)	> 100 µM (inactive)	> 100 µM (inactive)	> 100 µM (inactive)	> 100 µM (inactive)	> 100 µM (inactive)	> 100 µM (inactive)	> 100 µM (inactive)	> 100 µM (inactive)	> 100 µM (inactive)	> 100 µM (inactive)	> 100 µM (inactive)	> 100 µM (inactive)	> 100 µM (inactive)
CSC1=N/C(=C\c2ccc(C)cc2)C(=O)N1	37.8 µM (inactive)	> 100 µM (inactive)	52.8 µM (inactive)	> 100 µM	54.8 µM (inactive)	50.9 µM (inactive)	> 100 µM (inactive)	> 100 µM (inactive)	> 100 µM (inactive)	50.8 µM (inactive)	95.3 µM (inactive)	26.4 µM (inactive)	59.6 µM (inactive)	> 100 µM (inactive)	> 100 µM (inactive)	25.2 µM (inactive)	> 100 µM (inactive)	89.3 µM (inactive)	47.8 µM (inactive)
CCOC(=O)CCc1c(C)nc2c(C)c3c([nH]c4ccc(Cl)cc43)c(C)c2c1O	10.1 µM (inactive)	10.4 µM (inactive)	10.2 µM (inactive)	12.2 µM	4.94 µM (inactive)	15.8 µM (inactive)	4.75 µM (inactive)	10.2 µM (inactive)	4.94 µM (inactive)	7 µM (inactive)	23.5 µM (inactive)	2.96 µM (inactive)	14.3 µM (inactive)	1.45 µM (inactive)	–	14.8 µM (inactive)	10.7 µM (inactive)	–	16.1 µM (inactive)
Cc1ccc2c(c1)Sc1ccc(/N=N/N(C)C)cc1N2C	71 µM (inactive)	78.9 µM (inactive)	> 100 µM (inactive)	> 100 µM	64.6 µM (inactive)	48.5 µM (inactive)	> 100 µM (inactive)	> 100 µM (inactive)	> 100 µM (inactive)	87.9 µM (inactive)	> 100 µM (inactive)	> 100 µM (inactive)	> 100 µM (inactive)	> 100 µM (inactive)	> 100 µM (inactive)	31.7 µM (inactive)	> 100 µM (inactive)	> 100 µM (inactive)	> 100 µM (inactive)
N#Cc1c(-c2cccc(Br)c2)cc(-c2ccc(Cl)cc2)nc1N	33 µM (inactive)	13.7 µM (inactive)	10.5 µM (inactive)	14.1 µM	31 µM (inactive)	11.2 µM (inactive)	18.7 µM (inactive)	14 µM (inactive)	20.7 µM (inactive)	26.2 µM (inactive)	32 µM (inactive)	15.8 µM (inactive)	24.8 µM (inactive)	11.6 µM (inactive)	19.1 µM (inactive)	29 µM (inactive)	18.7 µM (inactive)	15.3 µM (inactive)	19 µM (inactive)
CCOC(=O)c1sc(N)nc1N1CCCC1	> 100 µM (inactive)	> 100 µM (inactive)	> 100 µM (inactive)	> 100 µM	> 100 µM (inactive)	> 100 µM (inactive)	> 100 µM (inactive)	> 100 µM (inactive)	> 100 µM (inactive)	> 100 µM (inactive)	> 100 µM (inactive)	0.942 µM (active)	–	> 100 µM (inactive)	> 100 µM (inactive)	> 100 µM (inactive)	> 100 µM (inactive)	> 100 µM (inactive)	> 100 µM (inactive)
COc1ccc(/C=C(/C)[N+](=O)[O-])cc1	2.75 µM (inactive)	2.08 µM (inactive)	2.13 µM (inactive)	2.28 µM	2.62 µM (inactive)	2 µM (inactive)	3.1 µM (inactive)	2.13 µM (inactive)	3.18 µM (inactive)	1.22 µM (inactive)	2.22 µM (inactive)	1.69 µM (inactive)	3.15 µM (inactive)	4.95 µM (inactive)	2.1 µM (inactive)	3.72 µM (inactive)	1.82 µM (inactive)	1.68 µM (inactive)	1.67 µM (inactive)
CC1=NN(C(=O)CC(=O)Nc2ccccc2C)C(=O)C1/N=N\c1ccc(S(=O)(=O)c2ccc(/N=N/C3C(=O)N(C(=O)CC(=O)Nc4ccccc4C)N=C3C)cc2)cc1 (stereo unspecified)	> 100 µM (inactive)	> 100 µM (inactive)	> 100 µM (inactive)	> 100 µM	> 100 µM (inactive)	> 100 µM (inactive)	> 100 µM (inactive)	68.9 µM (inactive)	> 100 µM (inactive)	> 100 µM (inactive)	74.6 µM (inactive)	> 100 µM (inactive)	> 100 µM (inactive)	> 100 µM (inactive)	> 100 µM (inactive)	> 100 µM (inactive)	> 100 µM (inactive)	> 100 µM (inactive)	> 100 µM (inactive)
C#CC(C)(C)OC(=O)C(=[N+]=[N-])C(C)=O	> 10 µM (inactive)	–	> 10 µM (inactive)	> 10 µM	> 10 µM (inactive)	> 10 µM (inactive)	> 10 µM (inactive)	> 10 µM (inactive)	> 10 µM (inactive)	> 10 µM (inactive)	> 10 µM (inactive)	> 10 µM (inactive)	> 10 µM (inactive)	> 10 µM (inactive)	> 10 µM (inactive)	> 10 µM (inactive)	> 10 µM (inactive)	> 10 µM (inactive)	> 10 µM (inactive)
Cc1cc(-c2nc3cccc(F)c3s2)ccc1N	46.2 µM (inactive)	> 100 µM (inactive)	49.5 µM (inactive)	> 67.6 µM	13.3 µM (inactive)	> 50.8 µM (inactive)	> 57.3 µM (inactive)	1.93 µM (inactive)	> 68.2 µM (inactive)	0.0132 µM (active)	> 80.9 µM (inactive)	> 71 µM (inactive)	> 35 µM (inactive)	> 85.3 µM (inactive)	> 45.8 µM (inactive)	0.033 µM (active)	0.48 µM (active)	> 96.4 µM (inactive)	> 45 µM (inactive)

— ChEMBL document CHEMBL1201862, “PubChem BioAssay data set” (2004)
